Test [1] in a line: GC headspace analysis of odor emitting compound. As to conditions: 500 μL of 0.1% solution in water; % of control; 0% = complete removal.
Description: (§1) The first odor reducing composition of the invention was 89% L-aspartic acid, 1% ZnO, and 10% Smellrite® zeolite (Invention #1). The second odor reducing composition of the invention was 88% L-aspartic acid, 2% ZnO, and 10% Smellrite® zeolite (Invention #2). The odor emitting compounds were tested neat, and triethylamine (0.1%), dimethylsulfide (0.1%), and isovaleric acid (0.82%) were also tested as solutions in water.
(§2) In the tests using the water solutions of the odor emitting compounds, 500 μL of the solutions were used for all samples.
(§3) Samples were prepared using 20 mL serum bottles with septum caps, and gas tight syringes were used to sample the headspace in the serum bottles. The sample was weighed into the serum bottle, the odor emitting compounds were added, and the sample bottles capped. The sample and the odor emitting compound in the serum bottle was mixed in each case. The serum bottle was then allowed to stand for 30 minutes and a 100 μL sample was taken from headspace of the serum bottle using a gas tight syringe and then injected into a gas chromatograph (GC) for analysis.
(§4) The GC analysis was performed using a H—P 5890-11 GC with a FID detector and a Split/Splitless injector, and a H—P 3396 integrator. The column used was a capillary H—P Ultra-2 (50 m×0.32 mm×0.52 μm). The GC conditions used were: injector temperature=300° C., detector temperature=330° C., oven temperature program=70° C. initial hold for 4 min., raise temperature 7° C./min. to 235° C., hold at 235° C. for 4 min. with total run length of 31.6 min. The split was turned off at injection and turned on after 30 seconds.
(§5) Complete removal of odor is represented as 0% and the control is 100%.
A short description of test [2]: GC headspace analysis of odor emitting compound. The conditions noted are these: 500 μL of 0.1% solution in water; % of control; 0% = complete removal. This is another data set of the same source.
Description: as §1, §2, §3, §4, §5
Test [3] is described as follows: GC headspace analysis of odor emitting compound. The conditions noted are these: 500 μL of 0.82% solution in water; % of control; 0% = complete removal.
Description: as §1, §2, §3, §4, §5

Molecules are shown by their SMILES.

This is an account of results in patent publication US20040213755A1, “Compositions and methods for reducing odor” (priority 2000, published 2004).

With `N[C@@H](CC(=O)O)C(=O)O` [L-aspartic acid], the “% Odor, Triethylamine (0.1% in water)” value in test [1] amounted to 0%. In addition, the “% Odor, Dimethylsulfide (0.1% in water)” value in test [2] is recorded as 82.2%. For the same molecule, the “% Odor, Isovaleric acid (0.82% in water)” value in test [3] turned out to be 13.9%.

On to `O=C([O-])O.[Na+]` [Baking soda, sodium bicarbonate], for which, in test [1], the “% Odor, Triethylamine (0.1% in water)” value is 19.%. For the same molecule, the “% Odor, Dimethylsulfide (0.1% in water)” value in test [2] is 93.6%. The “% Odor, Isovaleric acid (0.82% in water)” value in test [3] is given as 8.7%.

For the molecule `[O]=[Zn]` [Zinc oxide, zinc oxide], the “% Odor, Triethylamine (0.1% in water)” value in test [1] is on record as 79.3%. Moreover, in test [2], the “% Odor, Dimethylsulfide (0.1% in water)” value is 96.4%. Also, the “% Odor, Isovaleric acid (0.82% in water)” value in test [3] turned out to be 0%.
